From ChEMBL document CHEMBL1130828, “Synthesis and biological activities of phenyl piperazine-based peptidomimetic growth hormone secretagogues” (Bioorg Med Chem Lett, 1998)

Species: Rattus norvegicus
Assay: Concentration required for GH-releasing activity in the rat pituitary cell assay was determined in vitro
Format: functional
Conditions: Pituitary gland cell

| EC50 | SMILES |
| --- | --- |
| 0.21 µM | CC(C)c1ccccc1N1CCN(C(=O)[C@@H](Cc2c[nH]c3ccccc23)NC(=O)C(C)(C)N)CC1 |
| 0.0045 µM | COC(=O)CS(=O)(=O)Nc1ccccc1N1CCN(C(=O)[C@@H](CCCc2ccccc2)NC(=O)C(C)(C)N)CC1 |
| 0.0063 µM | CC(C)(N)C(=O)N[C@H](CCCc1ccccc1)C(=O)N1CCN(c2ccccc2NS(C)(=O)=O)CC1 |
| 0.15 µM | Cc1ccccc1N1CCN(C(=O)[C@@H](Cc2c[nH]c3ccccc23)NC(=O)C(C)(C)N)CC1 |
| 0.76 µM | CC(C)(N)C(=O)N[C@H](Cc1c[nH]c2ccccc12)C(=O)N1CCN(c2ccccc2Cl)CC1 |
| 0.0028 µM | CC(C)S(=O)(=O)Nc1ccccc1N1CCN(C(=O)[C@@H](CCCc2ccccc2)NC(=O)C(C)(C)N)CC1 |
| 0.0023 µM | CC(C)(N)C(=O)N[C@H](CCCc1ccccc1)C(=O)N1CCN(c2ccccc2NS(=O)(=O)CC(=O)O)CC1 |
| 0.49 µM | COc1ccccc1N1CCN(C(=O)[C@@H](Cc2c[nH]c3ccccc23)NC(=O)C(C)(C)N)CC1 |
| 0.2 µM | CC(C)(N)C(=O)N[C@H](CCCc1ccccc1)C(=O)N1CCN(c2ccccc2NS(=O)(=O)C(F)(F)F)CC1 |
| 0.1 µM | Cc1ccccc1N1CCN(C(=O)[C@@H](CCCc2ccccc2)NC(=O)C(C)(C)N)CC1 |
